This note sets out measurements from patent US20140294849A1, “COMPOSITIONS AND USES” (GLAXOSMITHKLINE BIOLOGICALS SA, priority 2011, published 2014).

The test system of this assay is spatial learning and memory. Briefly: T-water maze in APP/PS1 mice. Conditions: Example 21; twelve weekly injections; vs non treated mice. It counts as in vivo, APPSwe/PS1 mice. The method, then:
Five groups of APPSwe/PS1 mice received one a week for a period of 12 weeks the following treatment: • Gr1: APPSwe/PS1+NaCl 0.9% n(=20), i.p. injections • Gr4: APPSwe/PS1+CRX527 (20 μg/mouse, 130 μl, n=10), i.p. injections • Gr5: […] (50 μg/mouse, 130 μl, n=10), i.p. injections • Gr8 APPSwe/PS1+AS15 ( 1/10th of human dose, 50 μl, n=10), i.m. injections • Gr9: APPSwe/PS1+AS01B ( 1/10th of human dose, 50 μl, n=10), i.m. injections
Mice were tested during the “light on” phase of the day. Behavioral experimenter was blinded to the genetic and treatment status of animals. To assess hippocampal-dependent spatial learning and memory, mice were trained in the T-water maze task. In this paradigm, we evaluate the mouse's ability to remember the spatial location of submerged platform. The T-maze apparatus (length of stem, 64 cm; length of arms, 30 cm; width, 12 cm; height of walls, 16 cm) was made of clear fiberglass and filled with water (23±1° C.) at a height of 12 cm. A platform (11×11 cm) was placed at the end of the target arm and was submerged 1 cm below the surface. The acquisition phase allows to evaluate animals for left-right spatial learning. During the first two trials, platforms were placed on each arms of the maze to test the spontaneous turning preference of the mouse. After these two trials, the least chosen arm was reinforced by the escape platform. The mice were placed in the stem of the T-maze and choose to swim either left or right until they found the submerged platform and escape to it, to a maximum of 60 s. After reaching the platform, the mice remained on it for 20 s and then were immediately placed back in the maze. […] Repeated trials were presented on the same day up to a maximum of 48 trials. A rest period of at least 10-15 min intervened between each block of 10 trials. A mouse was considered to have learned the task when it made no errors in a block of five consecutive trials. The reversal learning phase was then conducted 48 h later. During this phase, the same protocol was repeated, except that the mice were trained to find the escape platform on the opposite side to that on which they had learned on acquisition phase. The number of trials to reach the criterion (five of five correct choices made on consecutive trials) was measured as well as the latency to find the escape platform.

Consider `CCCCCCCCCCC[C@H](CC(=O)N[C@H]1[C@H](OC[C@H](NC(=O)C[C@@H](CCCCCCCCCCC)OC(=O)CCCCCCCCC)C(=O)O)O[C@H](CO)[C@@H](OP(=O)(O)O)[C@@H]1OC(=O)C[C@@H](CCCCCCCCCCC)OC(=O)CCCCCCCCC)OC(=O)CCCCCCCCC` [CRX527], for which the “behaviour as assessed by T water maze testing” value is reported as “significant improvements in behaviour”.
